Legend:
hNaV1.3 = target: T1, hNaV1.3 (Homo sapiens, UniProt Q9NY46); test: Voltage-dependent block (VDB) of hNaV1.3, QPatch whole-cell voltage-clamp in HEK-293 cells; type: cell-based; details: 8 s prepulse to -55 mV; at a given concentration (not given)
T1 construct: (Vanderbilt University, Nashville, Tenn.)
Description: (§1) Voltage-dependent block (VDB) of […] was determined by whole-cell voltage-clamp recordings of sodium current using a QPatch 16× automated electrophysiological system in HEK 293 cells overexpressing Nav 1.3 and Nav 1.7 sodium channels, respectively. VDB of peak current was measured using an 8 s conditioning prepulse (to -55 mV for NaV1.3 and to −60 mV for […]) followed by a test pulse (0 mV, 20 ms). Currents are normalized to the peak current recorded in the absence of drug and expressed as percent inhibition. […] Glucagon secretion in the cells was induced by the treatment with veratridine at 30 μM for 1 hour in Krebs-Ringer buffer containing 0.1% BSA. Percent inhibition of glucagon secretion by Na channel blockers was calculated from the reduction of veratridine-induced glucagon secretion in the absence of drug.
(Vanderbilt University, Nashville, Tenn.). The cells were continuously maintained in a humidified, 5% CO2 atmosphere at 37° C. in DMEM high glucose growth medium supplemented with 10% FBS, 2 mM L-glutamine, 100 U/mL penicillin, 100 μg/mL streptomycin, 1 mg/mL G418 and 3 μg/mL puromycin.
(§2) Whole-cell voltage-clamp recordings were used to measure the activity of test compounds against hNaV1.3 and hNaV1.7. Sodium currents were recorded at room temperature using a QPatch 16× automated electrophysiological system (Sophion Bioscience, Copenhagen, Denmark). Cells were washed with PBS and then incubated with Detachin for 2 minutes at room temperature. Cells were then resuspended in growth media, pelleted by centrifugation and resuspended in CHO-S-SFM II serum free media supplemented with 100 U/mL penicillin, 100 μg/mL streptomycin and 10 mM HEPES. The cells were allowed to recover for 30 min at room temperature with constant stirring and then loaded into the QPatch cell holder.
(§3) The cells were loaded into primed single hole (2 MΩ) large QPlates and the whole-cell configuration was established using the default protocol. Cells were allowed to stabilize for 10 min after establishment of the whole-cell configuration before current was measured. […] All currents are low-pass Bessel filtered at 5 kHz and digitized at 50 kHz.
(§4) Specific voltage-clamp protocols assessing voltage-dependent block (VDB, also termed state-dependent block) are used. VDB of peak current was measured following an 8 s conditioning prepulse (to -55 mV for NaV1.3 and to −60 mV for NaV1.7) followed by a test pulse to 0 mV (20 ms). An interpulse (−120 mV, 10 ms) was used to recover non-drug bound channels from fast inactivation. The prepulse potential was determined by the steady-state inactivation curves for NaV1.3 and NaV1.7. […] Multiple applications of drug were used to ensure complete solution exchange and the cells were allowed to stabilize in the drug containing solution for two minutes. Currents were normalized to the peak current recorded in the absence of drug and expressed as percent inhibition.

hNaV1.7 = hNaV1.7 (Homo sapiens, UniProt Q15858); test: Voltage-dependent block (VDB) of hNaV1.7, QPatch whole-cell voltage-clamp in HEK-293 cells; type: cell-based; details: 8 s prepulse to −60 mV; at a given concentration (not given)
Description: as §1
The cells were continuously maintained in a humidified, 5% CO2 atmosphere at 37° C. in MEM growth medium supplemented with 10% FBS, 2 mM L-glutamine, 100 U/mL penicillin, 100 μg/mL streptomycin, 0.6 mg/mL G418 and 2 μg/mL blastocydin.
as §2, §3, §4

α-TC1 clone 9 cells = type: cell-based; details: for Glucagon Secretion % Inhibition: veratridine-induced (30 μM for 1 hour), at a given concentration (not given)
Description: as §1
Cells were seeded at 0.4×10^5/well in 96-well plates and allowed to recover for 1 day. The media was then changed to serum-free DMEM and incubated overnight. Cells were then treated with sodium-channel blockers in the presence of veratridine (15 μM) in Krebs-Ringer buffer containing 0.1% BSA and 3 mM glucose for 1 h. Supernatants were collected and stored at −80° C. until analysis. Glucagon levels were measured by an ELISA kit.

rat pancreatic islets [1] = test: Veratridine-induced glucagon secretion in rat pancreatic islets; type: cell-based
rat pancreatic islets [2] = test: Glucagon secretion in rat pancreatic islets under low glucose (3 mM), ELISA; type: cell-based
human pancreatic islets = test: Veratridine-induced glucagon secretion in human pancreatic islets; type: cell-based; details: veratridine 30 μM
ZDF diabetic rats = test: ZDF diabetic rats, animal model of type 2 diabetes; type: in vivo, rat
Description: All sections from fluorescent staining were viewed under fluorescent microscope and the stained areas were digitally photographed at a magnification of 20×. The images taken at different magnification were normalized using the standard ruler grade (S1 Finder Graticule, 68040, Electron Microscopy Science, Hatfield, Pa.). Analyses of islet areas and entire section areas were performed using ImageJ software (NIH, MD). Three sections from each of 6 animals per treatment group were analyzed. Data are presented as mean±SEM. *, p<0.05; **, p<0.01; ***, p<0.001 by One-way ANOVA.
Male ZDF Leprfa/Crl rats were received at 5 weeks of age from Charles River Laboratories Inc., (Wilmington, Mass.) and were acclimated until study initiation at 6 weeks of age. Drugs were given to the animals in Purina 5008 for 10 weeks at doses approximately 170 mg/kg/d of ranolazine, 0.6 mg/kg/d of compound A and 30 mg/kg/d of sitagliptin as positive control. Fasting (12-14 h fast) and non-fasting blood samples were obtained by tail-nick and blood glucose was measured using a Freestyle Lite glucose meter (Abbott Laboratories Inc., Abbott Park, Ill.). HbA1c levels were monitored every other week. Twenty four hour water consumption as surrogate marker for diabetes for each rat was measured at least once per week.

Chain of hNaV1.7 (Q15858 1-1977 isoform Q15858-3): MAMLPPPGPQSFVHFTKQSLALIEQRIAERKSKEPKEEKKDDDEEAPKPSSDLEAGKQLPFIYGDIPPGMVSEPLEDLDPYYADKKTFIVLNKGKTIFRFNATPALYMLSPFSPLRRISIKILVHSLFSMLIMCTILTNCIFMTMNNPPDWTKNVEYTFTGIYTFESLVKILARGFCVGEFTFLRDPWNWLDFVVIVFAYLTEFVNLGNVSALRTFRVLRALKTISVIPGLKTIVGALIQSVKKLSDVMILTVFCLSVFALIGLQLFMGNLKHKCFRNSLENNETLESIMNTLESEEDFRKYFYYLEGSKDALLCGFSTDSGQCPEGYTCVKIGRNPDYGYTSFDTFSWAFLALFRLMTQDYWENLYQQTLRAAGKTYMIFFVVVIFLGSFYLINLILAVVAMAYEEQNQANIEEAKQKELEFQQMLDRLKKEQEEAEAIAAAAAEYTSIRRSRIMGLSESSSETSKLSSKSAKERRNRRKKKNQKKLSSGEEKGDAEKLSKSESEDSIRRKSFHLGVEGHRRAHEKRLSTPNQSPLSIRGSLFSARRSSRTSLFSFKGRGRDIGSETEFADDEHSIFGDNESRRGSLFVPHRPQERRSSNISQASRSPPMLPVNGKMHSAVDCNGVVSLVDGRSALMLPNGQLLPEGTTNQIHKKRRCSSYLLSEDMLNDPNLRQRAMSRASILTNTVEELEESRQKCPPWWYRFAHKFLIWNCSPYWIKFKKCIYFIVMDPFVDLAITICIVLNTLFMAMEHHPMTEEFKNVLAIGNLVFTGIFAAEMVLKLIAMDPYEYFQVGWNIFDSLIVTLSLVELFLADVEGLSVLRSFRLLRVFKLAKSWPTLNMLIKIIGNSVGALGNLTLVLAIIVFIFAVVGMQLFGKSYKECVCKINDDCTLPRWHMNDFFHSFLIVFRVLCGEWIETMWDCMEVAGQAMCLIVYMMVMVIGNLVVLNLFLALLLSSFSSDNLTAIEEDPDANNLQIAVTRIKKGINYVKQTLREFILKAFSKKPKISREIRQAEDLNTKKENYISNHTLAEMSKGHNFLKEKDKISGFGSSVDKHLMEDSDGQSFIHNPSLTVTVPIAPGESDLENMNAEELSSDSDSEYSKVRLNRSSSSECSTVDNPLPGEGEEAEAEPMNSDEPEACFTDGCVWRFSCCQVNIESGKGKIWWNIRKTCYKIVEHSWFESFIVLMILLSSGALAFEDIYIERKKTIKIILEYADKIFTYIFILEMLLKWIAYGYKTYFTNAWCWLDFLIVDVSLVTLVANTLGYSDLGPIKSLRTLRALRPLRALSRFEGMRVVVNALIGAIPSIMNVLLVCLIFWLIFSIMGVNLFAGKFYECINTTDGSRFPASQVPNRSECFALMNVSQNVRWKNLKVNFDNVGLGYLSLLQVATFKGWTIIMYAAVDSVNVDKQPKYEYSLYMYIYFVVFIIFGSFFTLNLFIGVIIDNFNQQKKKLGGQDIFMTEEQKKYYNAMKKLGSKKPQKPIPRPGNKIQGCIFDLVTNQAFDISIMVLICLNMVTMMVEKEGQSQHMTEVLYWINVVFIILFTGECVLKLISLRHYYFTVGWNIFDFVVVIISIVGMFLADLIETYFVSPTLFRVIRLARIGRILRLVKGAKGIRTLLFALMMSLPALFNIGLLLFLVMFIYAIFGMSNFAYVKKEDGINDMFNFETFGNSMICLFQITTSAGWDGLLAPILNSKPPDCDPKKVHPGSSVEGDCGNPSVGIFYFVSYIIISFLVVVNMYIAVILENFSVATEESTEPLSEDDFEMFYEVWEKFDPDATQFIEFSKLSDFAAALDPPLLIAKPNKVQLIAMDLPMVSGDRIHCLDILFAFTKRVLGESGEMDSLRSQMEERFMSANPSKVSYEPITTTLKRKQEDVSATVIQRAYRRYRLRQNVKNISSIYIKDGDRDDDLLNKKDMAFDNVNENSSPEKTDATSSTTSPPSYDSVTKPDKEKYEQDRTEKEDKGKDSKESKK
Chain of hNaV1.7 (Q07699 19-218 partner): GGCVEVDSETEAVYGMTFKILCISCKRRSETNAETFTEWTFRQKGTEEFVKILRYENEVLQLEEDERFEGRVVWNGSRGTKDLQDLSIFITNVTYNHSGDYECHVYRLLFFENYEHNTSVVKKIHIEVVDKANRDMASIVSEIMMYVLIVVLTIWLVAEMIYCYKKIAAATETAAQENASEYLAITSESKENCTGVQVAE
T1 sequence (Q9NY46 1-1951 isoform Q9NY46-4): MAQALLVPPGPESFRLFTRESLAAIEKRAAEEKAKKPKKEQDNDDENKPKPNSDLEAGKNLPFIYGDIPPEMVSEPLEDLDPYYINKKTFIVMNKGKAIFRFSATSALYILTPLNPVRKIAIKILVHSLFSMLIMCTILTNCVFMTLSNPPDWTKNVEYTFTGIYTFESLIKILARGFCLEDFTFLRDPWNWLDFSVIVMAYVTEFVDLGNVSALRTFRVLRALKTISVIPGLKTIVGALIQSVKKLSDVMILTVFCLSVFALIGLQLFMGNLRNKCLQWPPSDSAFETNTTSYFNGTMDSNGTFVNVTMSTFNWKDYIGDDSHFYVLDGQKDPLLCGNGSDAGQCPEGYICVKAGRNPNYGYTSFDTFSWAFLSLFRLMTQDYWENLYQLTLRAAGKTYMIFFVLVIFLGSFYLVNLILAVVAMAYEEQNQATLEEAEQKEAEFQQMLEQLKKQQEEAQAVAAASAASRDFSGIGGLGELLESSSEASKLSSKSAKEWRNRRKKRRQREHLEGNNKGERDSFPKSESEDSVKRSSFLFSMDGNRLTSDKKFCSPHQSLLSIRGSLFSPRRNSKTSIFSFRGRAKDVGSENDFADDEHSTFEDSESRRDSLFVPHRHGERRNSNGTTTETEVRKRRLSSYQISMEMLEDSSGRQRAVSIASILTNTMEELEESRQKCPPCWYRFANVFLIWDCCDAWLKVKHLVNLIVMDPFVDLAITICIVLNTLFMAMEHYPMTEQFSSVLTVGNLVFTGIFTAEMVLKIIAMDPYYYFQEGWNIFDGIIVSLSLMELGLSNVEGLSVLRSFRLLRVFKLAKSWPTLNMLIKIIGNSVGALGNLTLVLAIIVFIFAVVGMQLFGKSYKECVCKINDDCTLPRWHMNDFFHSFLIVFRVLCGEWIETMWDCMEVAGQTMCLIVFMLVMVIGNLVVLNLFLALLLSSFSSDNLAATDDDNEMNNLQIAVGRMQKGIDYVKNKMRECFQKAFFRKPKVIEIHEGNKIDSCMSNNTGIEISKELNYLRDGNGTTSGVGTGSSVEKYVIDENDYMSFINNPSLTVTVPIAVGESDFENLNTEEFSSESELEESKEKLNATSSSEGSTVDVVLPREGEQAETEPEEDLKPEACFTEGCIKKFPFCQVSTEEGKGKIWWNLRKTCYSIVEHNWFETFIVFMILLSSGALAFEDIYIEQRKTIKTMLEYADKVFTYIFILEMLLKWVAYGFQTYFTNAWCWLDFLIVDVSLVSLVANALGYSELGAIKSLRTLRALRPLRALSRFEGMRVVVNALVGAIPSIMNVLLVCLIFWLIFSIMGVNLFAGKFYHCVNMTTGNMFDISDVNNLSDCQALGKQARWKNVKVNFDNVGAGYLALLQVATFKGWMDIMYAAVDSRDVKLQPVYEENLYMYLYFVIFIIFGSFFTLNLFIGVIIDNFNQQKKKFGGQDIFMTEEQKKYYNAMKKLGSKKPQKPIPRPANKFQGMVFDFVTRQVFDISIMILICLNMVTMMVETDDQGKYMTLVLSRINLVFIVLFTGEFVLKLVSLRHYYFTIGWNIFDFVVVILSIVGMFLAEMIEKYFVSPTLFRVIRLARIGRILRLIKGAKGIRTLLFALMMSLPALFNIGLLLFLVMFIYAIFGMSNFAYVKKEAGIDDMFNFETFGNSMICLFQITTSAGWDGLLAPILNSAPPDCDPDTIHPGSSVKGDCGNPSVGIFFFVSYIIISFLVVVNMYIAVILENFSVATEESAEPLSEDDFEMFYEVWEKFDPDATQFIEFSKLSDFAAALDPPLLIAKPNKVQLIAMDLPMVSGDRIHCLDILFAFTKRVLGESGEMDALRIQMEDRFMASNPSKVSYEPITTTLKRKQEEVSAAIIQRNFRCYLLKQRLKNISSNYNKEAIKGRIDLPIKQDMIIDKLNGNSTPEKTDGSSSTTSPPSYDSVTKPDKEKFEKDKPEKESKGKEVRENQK
T1 sequence (Q07699 19-218 partner): as the sequence (Q07699 19-218 partner) above
T1 sequence (O60939 30-215 partner): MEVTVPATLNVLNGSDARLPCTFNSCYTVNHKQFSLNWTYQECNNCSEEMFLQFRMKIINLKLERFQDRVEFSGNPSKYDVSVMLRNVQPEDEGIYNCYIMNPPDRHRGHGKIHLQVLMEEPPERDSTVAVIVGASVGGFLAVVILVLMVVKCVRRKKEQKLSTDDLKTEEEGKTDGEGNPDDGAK

| Structure (SMILES) | hNav1.3 VDB % Inhibition (hNaV1.3) | hNav1.7 VDB % Inhibition (hNaV1.7) | Glucagon Secretion % Inhibition (α-TC1 clone 9 cells) | also measured |
| --- | --- | --- | --- | --- |
| O=C(NCc1ccc(C(F)(F)F)c(Cl)c1)c1ccc(S(=O)(=O)Nc2ncc(Cl)s2)cc1 [C, N-(3-chloro-4-(trifluoromethyl)benzyl)-4-(N-(5-chlorothiazol-2-yl)sulfamoyl)benzamide] | 92.16% | 7.81% | 41% | – |
| FC(F)(F)Oc1ccc(-c2ccc3nnc(Oc4ccccc4)n3c2)cc1 [D, 3-phenoxy-6-(4-(trifluoromethoxy)phenyl)-[1,2,4]triazolo[4,3-a]pyridine] | 49.35% | 89.74% | 33.75% | – |
| CC(C)(C)OC(=O)N[C@H](Cc1ccccc1)C(=O)N[C@@H]1CCc2ccccc2N(CC(F)(F)F)C1 [E, tert-butyl (R)-1-oxo-3-phenyl-1-((R)-1-(2,2,2-trifluoroethyl)-2,3,4,5-tetrahydro-1H-benzo[b]azepin-3-ylamino)propan-2-ylcarbamate] | 23.18% | 23.73% | 34.53% | – |
| COCC(F)(F)c1nnc2ccc(-c3ccc(Oc4ccc(Cl)cc4)cc3)cn12 [F, 6-(4-(4-chlorophenoxy)phenyl)-3-(1,1-difluoro-2-methoxyethyl)-[1,2,4]triazolo[4,3-a]pyridine] | 2.32% | 14.72% | 4% | – |
| CS(=O)(=O)Nc1ccc(-c2ccc(Cl)c(C(F)(F)F)c2)c(Cl)c1 [G, N-(2,4′-dichloro-3′-(trifluoromethyl)biphenyl-4-yl)methanesulfonamide] | 4.01% | 6.04% | 3.5% | – |
| NC1=N[C@H](O)[C@H]2[C@H]3O[C@]4(O)O[C@@H]([C@@H](O)[C@@]2(N1)[C@@H]4O)[C@]3(O)CO [TTX, tetrodotoxin] | – | – | – | reduction of veratridine-induced glucagon secretion (in words) (rat pancreatic islets [1]): concentration-dependently reduced; maximal reduction of glucagon secretion as compared to the vehicle control (rat pancreatic islets [2]): 47±6%; reduction of veratridine-induced increase of glucagon secretion (α-TC1 clone 9 cells): 100±6% |
| COc1ccc(C(=O)O[C@H]2CC[C@@]3(C)[C@@H]4CC[C@H]5[C@]6(O)C[C@H](O)[C@@]7(O)[C@@H](CN8C[C@@H](C)CC[C@H]8[C@@]7(C)O)[C@]6(O)C[C@@]53O[C@]24O)cc1OC [Veratridine] | – | – | – | increase in glucagon secretion (human pancreatic islets): ~9 fold; increase in glucagon secretion (rat pancreatic islets [1]; veratridine at 30 μM): more than 3 fold |
| N[C@@H](CC(=O)N1CCn2c(nnc2C(F)(F)F)C1)Cc1cc(F)c(F)cc1F [sitagliptin] | – | – | – | insulin staining per islet (ZDF diabetic rats; 10 weeks treatment): 90.0±2.1%; islet area/pancreas area (ZDF diabetic rats; 10 weeks treatment): 0.98±0.3%; staining of glucagon per islet versus vehicle (ZDF diabetic rats; 10 weeks treatment): significantly less; water consumption (surrogate marker for diabetes) (ZDF diabetic rats; in Purina 5008 diet, during diabetes development): significantly prevented the increase; HbA1c levels versus vehicle group (ZDF diabetic rats; in Purina 5008 diet, weeks 4, 6 and 8): significantly lower; fasting plasma glucose levels versus vehicle (ZDF diabetic rats; in Purina 5008 diet, weeks 7 and 9): significantly lower |

From US20140221286A1, “SODIUM CHANNEL BLOCKERS REDUCE GLUCAGON SECRETION” (Gilead Sciences, Inc., priority 2011, published 2014)
